{"source": "paper PMC12270681", "about": "(The Journal of Biological Chemistry, 2025)", "key": {"Cb-cParM [1]": {"target": "T1, Cb-cParM (Clostridium botulinum, UniProt A0A9Y2YAC8)", "T1 construct": "gene EXN02_10840", "T1 sequence (A0A9Y2YAC8 1-285)": "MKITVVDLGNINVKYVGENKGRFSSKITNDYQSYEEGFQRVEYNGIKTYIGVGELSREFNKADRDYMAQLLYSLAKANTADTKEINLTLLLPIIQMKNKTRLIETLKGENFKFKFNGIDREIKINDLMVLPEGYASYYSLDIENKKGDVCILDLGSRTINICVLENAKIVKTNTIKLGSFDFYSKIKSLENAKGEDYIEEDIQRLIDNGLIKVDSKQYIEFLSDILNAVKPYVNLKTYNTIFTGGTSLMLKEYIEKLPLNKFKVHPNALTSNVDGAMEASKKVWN", "conditions": "polymerised with 3 mM ATP, 30 min; Mg2+; pH 7.5; 25 °C; nucleotide hydrolysed to ADP in the filament"}, "Dh-cParM1 [2]": {"target": "T2, Dh-cParM1 (Desulfitobacterium hafniense, UniProt Q24VP4)", "T2 sequence (Q24VP4 1-369)": "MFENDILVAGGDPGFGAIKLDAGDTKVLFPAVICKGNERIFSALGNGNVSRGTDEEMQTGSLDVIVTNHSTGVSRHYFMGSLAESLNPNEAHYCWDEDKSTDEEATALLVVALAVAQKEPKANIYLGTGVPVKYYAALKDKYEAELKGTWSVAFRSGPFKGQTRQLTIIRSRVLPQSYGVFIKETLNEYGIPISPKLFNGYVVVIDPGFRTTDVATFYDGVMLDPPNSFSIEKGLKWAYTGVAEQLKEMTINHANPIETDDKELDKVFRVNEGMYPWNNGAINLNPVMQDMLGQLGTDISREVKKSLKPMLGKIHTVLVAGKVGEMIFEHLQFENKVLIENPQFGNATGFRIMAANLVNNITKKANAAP", "assay": "cryo-EM structure of filament ([…] A)", "assay_type": "binding", "parameters": "gene DSY2109; synthetic gene, N- or C-side 8xHis tag with HRV 3C site, tag cut; E. coli BL21(DE3); polymerises into helical filaments", "conditions": "polymerised with 5 mM ATP; 40 mM HEPES pH 7.5, 400 mM KCl, 1 mM MgCl2; nucleotide state not unambiguous, ADP fits better"}, "Dh-cParM1 [3]": {"target": "T2, Dh-cParM1", "parameters": "gene DSY2109", "conditions": "5 mM nucleotide (sedimentation); pH 7.5, Mg2+, 24 °C"}, "Cb-cParM [4]": {"target": "T1, Cb-cParM", "conditions": "polymerised with 3 mM GTP, 30 min, class 1; Mg2+; pH 7.5; 25 °C; nucleotide hydrolysed to GDP in the filament"}, "Dh-cParM1 [5]": {"target": "T2, Dh-cParM1", "assay": "polymerisation by sedimentation, EM", "assay_type": "binding", "parameters": "gene DSY2109; synthetic gene, N- or C-side 8xHis tag with HRV 3C site, tag cut; E. coli BL21(DE3); polymerises into helical filaments", "conditions": "5 mM nucleotide (sedimentation); pH 7.5, Mg2+, 24 °C"}, "Cb-cParM [6]": {"target": "T1, Cb-cParM", "conditions": "class 2 (30 min) and 1 min with 3 mM GTP; Mg2+; pH 7.5; 25 °C; low resolution, nucleotide likely GTP or GDP-Pi"}, "[7]": {"target": "Dh-cParM1, chromosome-encoded ParM of the Desulfitobacterium hafniense Y51 Dh-cParMR-1 cassette (Desulfitobacterium hafniense Y51)", "assay": "co-sedimentation"}}, "note": "Several values for one entry are separate records, joined by “and”; a condition that tells them apart may be missing. Identical values can stand only once.", "data": [{"compound": "Nc1ncnc2c1ncn2[C@@H]1O[C@H](COP(=O)(O)OP(=O)(O)O)[C@@H](O)[C@H]1O", "note": "[ADP]", "values": [{"measurement": "cryo-EM structure of filament (3.9 A)", "setting": "Cb-cParM [1]", "result": "indicating that the bound nucleotides had been hydrolyzed to ADP and GDP, respectively"}, {"measurement": "cryo-EM structure of filament (4.0 A)", "setting": "Dh-cParM1 [2]", "result": "ADP appears to fit better into the cryoEM density map than ATP"}]}, {"compound": "Nc1ncnc2c1ncn2[C@@H]1O[C@H](COP(=O)(O)OP(=O)(O)OP(=O)(O)O)[C@@H](O)[C@H]1O", "note": "[ATP]", "values": [{"measurement": "polymerisation by light scattering, sedimentation, EM", "setting": "Dh-cParM1 [3]", "result": "Dh-cParM1 polymerization induced by ATP was followed by light scattering"}]}, {"compound": "Nc1nc2c(ncn2[C@@H]2O[C@H](COP(=O)(O)OP(=O)(O)O)[C@@H](O)[C@H]2O)c(=O)[nH]1", "note": "[GDP]", "values": [{"measurement": "cryo-EM structure of filament (3.5 A)", "setting": "Cb-cParM [4]", "result": "indicating that the bound nucleotides had been hydrolyzed to ADP and GDP, respectively"}]}, {"compound": "Nc1nc2c(ncn2[C@@H]2O[C@H](COP(=O)(O)OP(=O)(O)OP(=O)(O)O)[C@@H](O)[C@H]2O)c(=O)[nH]1", "note": "[GTP]", "values": [{"measurement": "polymerisation by sedimentation, EM", "setting": "Dh-cParM1 [5]", "result": "Filaments were induced by the addition of ATP, GTP, and non-hydrolysable nucleotides"}, {"measurement": "cryo-EM structure of filament (6.5 A and 8.6 A); Pi release also measured", "setting": "Cb-cParM [6]", "result": "suggesting that they were in the state before the phosphate release"}]}, {"compound": "Dh-cParM1, chromosome-encoded ParM of the Desulfitobacterium hafniense Y51 Dh-cParMR-1 cassette (natural protein)", "values": [{"measurement": "residual concentration in the supernatants (compared with a critical concentration)", "setting": "[7]", "result": "4 µM and 5 µM"}]}]}
